Series [1] addresses human complement Factor B protein (Homo sapiens (Human), UniProt P00751). Description: Complement human Factor B protein binding test (SPR method). Particulars: Biacore 8K, 1:1 Binding Kinetics Model. On the procedure: Experimental purpose: To detect the kinetic constants and affinity of the binding between the test compounds and human complement Factor B using the SPR method.
1-Ethyl-3-(3-dimethylaminopropyl) carbodiimide hydrochloride (EDC) and N-hydroxysulfosuccinimide sodium salt (NHS) were mixed in a 1:1 ratio, and complement Factor B was diluted to 20 μg/mL in acetic acid solution with a pH of 5.5. Using a biomacromolecule interaction analyzer Biacore 8K, the programmed settings were set to add the EDC/NHS, the FB protein solution and the 1 M ethanolamine-hydrochloric acid solution to the detection plate. The detection plate was placed in the machine detection chamber, and the EDC/NHS mixture, the complement Factor B protein solution and the 1 M ethanolamine-hydrochloric acid solution were sequentially injected onto the surface of the CM5 chip according to the procedure for chip activation, ligand coupling and deactivation. The flow cell 1 of each channel was used as a reference channel for surface activation and deactivation only, without injection of complement Factor B protein solution. All sample stock solutions were diluted with running buffer (PBST), and all samples were serially diluted 2 times in duplicate for 6 points. The prepared sample was transferred to the detection plate according to the program settings and the detection plate was placed in the sample chamber of Biacore 8K. The detection program was run, and the samples were injected into each channel of the chip sequentially according to the program, with a binding time of 120 s, a dissociation time of 600 s and a flow rate of 30 μL/min. The data were analyzed using Biacore Insight Evaluation Software: The data were fitted using a 1:1 Binding Kinetics Model to obtain the binding rate constant (kon), dissociation rate constant (koff) and dissociation equilibrium constant (KD) for binding of each test sample to complement Factor B protein.
On the technique in general: Surface plasmon resonance follows binding to a sensor surface in real time, without labels.

The nature of series [2]: Plasma protein binding rate test (equilibrium dialysis), mouse. It counts as in vitro ADME, CD-1 mice. Particulars: 2 μM, equilibrium dialysis 37° C. 4 hours, CD-1 mouse plasma. On the procedure:
(§1) Experimental purpose: To evaluate the protein binding rate of the compounds of the present disclosure in the plasma of CD-1 mice, SD rats, beagle dogs, cynomolgus monkeys and humans using equilibrium dialysis.
(§2) The test compounds were diluted with dialysis buffer into the plasma of the above five species to prepare samples with a final concentration of 2 μM. The samples were then added to a 96-well equilibrium dialysis device and dialyzed using phosphate buffered saline solution at 37° C. for 4 hours. Warfarin was used as a control compound in the experiment. The concentration of the test compounds and warfarin in the plasma and buffer was determined using LC-MS/MS. The free fraction of the compound was calculated by the following formula: PPB_Unbound (%)=100*FC/TC, where FC is the concentration of the compound at the buffer end of the dialysis plate; TC is the concentration of the compound at the plasma end of the dialysis plate; To is the concentration of the compound in the plasma sample at time zero.
For orientation: Equilibrium dialysis compares concentrations on both sides of a semipermeable membrane.

Series [3] in a line: Plasma protein binding rate test (equilibrium dialysis), rat. The format is in vitro ADME, SD rats. Conditions: 2 μM, equilibrium dialysis 37° C. 4 hours, SD rat plasma. On the procedure: as §1, §2
The nature of series [4]: Plasma protein binding rate test (equilibrium dialysis), cynomolgus monkey. It counts as in vitro ADME, cynomolgus monkeys. Conditions: 2 μM, equilibrium dialysis 37° C. 4 hours. On the procedure:
as §1, §2

Series [5] in a line: In vitro liver microsomal stability test. It counts as in vitro ADME, human. Particulars: 1 μM compound, 0.5 mg/mL liver microsomes, NADPH. On the procedure:
Liver microsomes: purchased from Corning or Xenotech, stored in a −80° C. refrigerator; reduced nicotinamide adenine dinucleotide phosphate (NADPH), supplier: Chem-Impex International, Cat. No.: 00616; control compounds: testosterone, diclofenac, propafenone.
Stock solution: 10 mM DMSO solution; preparation of working concentration: The stock solution was diluted to 100 μM using 100% acetonitrile (organic phase content: 99% acetonitrile, 1% DMSO).
Two 96-well incubation plates were prepared and named as T60 incubation plate and NCF60 incubation plate.
445 μL of microsomal working solution (liver microsomal protein concentration of 0.56 mg/mL) was added to both the T60 incubation plate and the NCF60 incubation plate. The two incubation plates were pre-incubated in a 37° C. water bath for approximately 10 minutes.
After pre-incubation was completed, 5 μL of the test compound or control compound working solution was added to both the T60 incubation plate and the NCF60 incubation plate and mixed well. 50 μL of potassium phosphate buffer per well was added to the NCF60 incubation plate to initiate the reaction. 180 μL of termination solution (acetonitrile solution containing 200 ng/mL tolbutamide and 200 ng/mL labetalol) and 6 μL of NADPH regeneration system working solution were added to a TO termination plate. […]

pKd: −log10 of the molar value.

human complement Factor B protein, sequence (P00751 26-764): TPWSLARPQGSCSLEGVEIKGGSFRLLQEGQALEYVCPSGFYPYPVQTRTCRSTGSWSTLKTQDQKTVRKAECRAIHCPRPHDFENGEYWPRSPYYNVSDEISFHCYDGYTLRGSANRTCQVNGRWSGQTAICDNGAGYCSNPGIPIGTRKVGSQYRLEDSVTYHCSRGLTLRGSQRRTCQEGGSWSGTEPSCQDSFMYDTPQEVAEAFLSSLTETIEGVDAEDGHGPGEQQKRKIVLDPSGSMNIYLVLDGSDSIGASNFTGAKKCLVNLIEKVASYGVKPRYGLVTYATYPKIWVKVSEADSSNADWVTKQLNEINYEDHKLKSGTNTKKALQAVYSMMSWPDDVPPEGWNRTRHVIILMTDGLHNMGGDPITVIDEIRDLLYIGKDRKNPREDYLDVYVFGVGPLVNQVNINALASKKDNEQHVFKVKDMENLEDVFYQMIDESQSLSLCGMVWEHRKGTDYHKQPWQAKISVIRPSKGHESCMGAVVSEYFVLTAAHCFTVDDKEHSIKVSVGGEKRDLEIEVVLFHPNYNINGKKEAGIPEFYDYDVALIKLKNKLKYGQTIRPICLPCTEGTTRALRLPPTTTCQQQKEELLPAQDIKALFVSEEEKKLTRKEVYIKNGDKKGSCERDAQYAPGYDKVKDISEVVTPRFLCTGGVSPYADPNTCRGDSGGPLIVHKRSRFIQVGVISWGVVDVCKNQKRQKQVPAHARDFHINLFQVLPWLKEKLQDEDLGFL

As to `COc1cc(C)c2[nH]ccc2c1CN1C2CCC1(c1ccc(C(=O)O)cc1)CC(C1CC1)C2` (single isomer, unassigned) [Compound 3B], the pKd (commonly −log10 of the Kd, conventionally taken in molar units) in series [1] was above 7.00. Besides, the “Plasma protein binding (PPB) unbound, Mouse (M)” value in series [2] is reported as 19.1%. Besides, in series [3], the “Plasma protein binding (PPB) unbound, Rat (R)” value came out at 14.1%. For the same compound, the “Plasma protein binding (PPB) unbound, Cynomolgus monkey (C)” value in series [4] is 28.5%. The “Human liver microsomal stability CLint” value in series [5] is below 0.9 L/h/kg.

Source of the values: US20260055107A1, “SERIES OF NITROGEN-CONTAINING BRIDGED HETEROCYCLIC COMPOUNDS AND PREPARATION METHOD THEREFOR” (CMS RESEARCH & DEVELOPMENT PTE. LTD., priority 2022, published 2026).
